Assay results from ChEMBL document CHEMBL3132769, “Fragment growing to retain or alter the selectivity of anchored kinase hinge-binding fragments” (Medchemcomm, 2014).

Assays:
[1] = target: Tyrosine-protein kinase HCK (Homo sapiens) (UniProt P08631); test: Inhibition of human HCK catalytic domain expressed in baculovirus assessed as substrate phosphorylation using fluorescence-labelled peptides as substrate at 95 uM after 90 mins by microfluidic peptide phosphorylation assay
[2] = target: Fibroblast growth factor receptor 4 (Homo sapiens) (UniProt P22455); test: Inhibition of human FGFR4 catalytic domain expressed in baculovirus assessed as substrate phosphorylation using fluorescence-labelled peptides as substrate at 95 uM after 90 mins by microfluidic peptide phosphorylation assay
[3] = target: Protein kinase C beta type (Homo sapiens) (UniProt P05771); test: Inhibition of human truncated PKC beta1 expressed in baculovirus assessed as substrate phosphorylation using fluorescence-labelled peptides as substrate at 95 uM after 90 mins by microfluidic peptide phosphorylation assay
[4] = target: Mitogen-activated protein kinase kinase kinase kinase 4 (Homo sapiens) (UniProt O95819); test: Inhibition of human HGK catalytic domain expressed in baculovirus assessed as substrate phosphorylation using fluorescence-labelled peptides as substrate at 0.06 uM after 90 mins by microfluidic peptide phosphorylation assay
Sequence of Mitogen-activated protein kinase kinase kinase kinase 4 (Homo sapiens) (O95819 2-1239 limits assumed): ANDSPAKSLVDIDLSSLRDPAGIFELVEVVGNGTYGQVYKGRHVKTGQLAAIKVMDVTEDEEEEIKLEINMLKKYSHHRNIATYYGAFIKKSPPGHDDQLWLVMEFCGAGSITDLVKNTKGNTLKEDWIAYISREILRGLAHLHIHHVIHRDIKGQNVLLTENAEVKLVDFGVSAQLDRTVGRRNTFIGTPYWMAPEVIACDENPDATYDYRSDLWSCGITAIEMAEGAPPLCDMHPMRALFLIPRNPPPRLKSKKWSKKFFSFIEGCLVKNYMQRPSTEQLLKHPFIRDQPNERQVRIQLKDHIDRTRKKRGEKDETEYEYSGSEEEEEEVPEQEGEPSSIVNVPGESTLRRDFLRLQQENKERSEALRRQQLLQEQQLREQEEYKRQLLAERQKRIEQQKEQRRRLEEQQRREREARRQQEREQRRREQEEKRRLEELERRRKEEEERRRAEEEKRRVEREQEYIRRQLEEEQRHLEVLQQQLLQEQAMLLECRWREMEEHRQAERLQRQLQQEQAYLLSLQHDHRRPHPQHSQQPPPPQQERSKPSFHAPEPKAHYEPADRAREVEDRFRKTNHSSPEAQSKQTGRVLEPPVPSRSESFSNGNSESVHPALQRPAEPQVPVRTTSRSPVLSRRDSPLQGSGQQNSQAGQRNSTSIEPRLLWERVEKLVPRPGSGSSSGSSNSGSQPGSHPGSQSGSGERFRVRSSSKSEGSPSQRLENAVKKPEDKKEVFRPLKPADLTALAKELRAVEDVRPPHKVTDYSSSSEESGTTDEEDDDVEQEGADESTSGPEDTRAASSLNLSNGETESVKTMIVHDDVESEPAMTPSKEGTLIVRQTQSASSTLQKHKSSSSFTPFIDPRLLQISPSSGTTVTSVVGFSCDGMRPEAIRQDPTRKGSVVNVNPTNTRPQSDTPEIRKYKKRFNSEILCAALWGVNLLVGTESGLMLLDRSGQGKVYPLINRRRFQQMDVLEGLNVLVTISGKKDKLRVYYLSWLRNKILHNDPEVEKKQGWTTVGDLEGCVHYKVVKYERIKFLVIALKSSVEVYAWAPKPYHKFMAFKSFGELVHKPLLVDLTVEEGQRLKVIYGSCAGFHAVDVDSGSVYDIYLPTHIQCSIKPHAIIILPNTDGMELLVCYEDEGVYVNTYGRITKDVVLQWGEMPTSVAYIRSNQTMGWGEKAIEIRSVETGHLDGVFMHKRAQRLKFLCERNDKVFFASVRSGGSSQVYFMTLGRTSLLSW

[5] = target: T1, Mitogen-activated protein kinase 12 (Homo sapiens) (UniProt P53778); test: Inhibition of human full length p38 gamma expressed in Escherichia coli cell assessed as substrate phosphorylation using fluorescence-labelled peptides as substrate at 0.1 uM after 90 mins by microfluidic peptide phosphorylation assay
T1 sequence (whole entry): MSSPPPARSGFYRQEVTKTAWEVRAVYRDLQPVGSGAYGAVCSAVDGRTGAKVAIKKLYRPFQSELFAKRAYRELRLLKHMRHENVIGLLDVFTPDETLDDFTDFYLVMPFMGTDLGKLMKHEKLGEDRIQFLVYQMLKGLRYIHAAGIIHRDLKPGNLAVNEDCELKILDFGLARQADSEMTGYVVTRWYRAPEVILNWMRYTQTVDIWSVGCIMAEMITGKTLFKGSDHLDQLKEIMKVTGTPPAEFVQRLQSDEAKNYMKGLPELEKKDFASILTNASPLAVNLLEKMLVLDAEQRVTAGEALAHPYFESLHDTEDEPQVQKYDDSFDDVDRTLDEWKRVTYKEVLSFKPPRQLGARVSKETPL

[6] = target: MAP kinase-activated protein kinase 2 (Homo sapiens) (UniProt P49137); settings: 0.1 uM
Description: Inhibition of human full length MAPKAPK2 expressed in baculovirus assessed as substrate phosphorylation using fluorescence-labelled peptides as substrate at 0.1 uM after 90 mins by microfluidic peptide phosphorylation assay

[7] = target: Fibroblast growth factor receptor 2 (Homo sapiens) (UniProt P21802); settings: 0.1 uM
Sequence of Fibroblast growth factor receptor 2 (Homo sapiens) (P21802 22-821 limits assumed): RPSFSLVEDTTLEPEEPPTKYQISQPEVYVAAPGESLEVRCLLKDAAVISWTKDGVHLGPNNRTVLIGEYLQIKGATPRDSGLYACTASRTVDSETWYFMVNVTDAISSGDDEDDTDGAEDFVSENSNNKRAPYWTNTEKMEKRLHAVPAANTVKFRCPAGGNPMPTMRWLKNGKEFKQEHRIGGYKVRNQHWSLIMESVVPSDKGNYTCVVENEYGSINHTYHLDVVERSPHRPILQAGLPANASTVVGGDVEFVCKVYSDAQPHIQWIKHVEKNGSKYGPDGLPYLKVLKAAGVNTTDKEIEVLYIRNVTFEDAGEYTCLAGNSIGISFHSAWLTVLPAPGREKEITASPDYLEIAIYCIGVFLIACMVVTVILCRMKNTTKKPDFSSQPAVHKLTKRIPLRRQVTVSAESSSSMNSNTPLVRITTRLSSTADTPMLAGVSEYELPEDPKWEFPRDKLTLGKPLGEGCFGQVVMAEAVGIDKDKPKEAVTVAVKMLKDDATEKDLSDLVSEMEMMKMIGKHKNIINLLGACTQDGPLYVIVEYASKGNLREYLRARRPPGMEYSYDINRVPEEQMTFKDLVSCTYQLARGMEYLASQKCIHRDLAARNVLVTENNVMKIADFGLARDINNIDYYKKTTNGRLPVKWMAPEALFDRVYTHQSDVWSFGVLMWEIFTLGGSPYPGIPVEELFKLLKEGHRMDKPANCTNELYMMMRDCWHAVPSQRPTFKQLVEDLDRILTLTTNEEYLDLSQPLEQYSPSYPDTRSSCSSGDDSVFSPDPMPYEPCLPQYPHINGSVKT
Description: Inhibition of human FGFR2 catalytic domain expressed in baculovirus assessed as substrate phosphorylation using fluorescence-labelled peptides as substrate at 0.1 uM after 90 mins by microfluidic peptide phosphorylation assay

[8] = target: Ribosomal protein S6 kinase alpha-2 (Homo sapiens) (UniProt Q15349); test: Inhibition of human full length RSK3 expressed in baculovirus assessed as substrate phosphorylation using fluorescence-labelled peptides as substrate at […] after 90 mins by microfluidic peptide phosphorylation assay
Sequence of Ribosomal protein S6 kinase alpha-2 (Homo sapiens) (Q15349 whole entry): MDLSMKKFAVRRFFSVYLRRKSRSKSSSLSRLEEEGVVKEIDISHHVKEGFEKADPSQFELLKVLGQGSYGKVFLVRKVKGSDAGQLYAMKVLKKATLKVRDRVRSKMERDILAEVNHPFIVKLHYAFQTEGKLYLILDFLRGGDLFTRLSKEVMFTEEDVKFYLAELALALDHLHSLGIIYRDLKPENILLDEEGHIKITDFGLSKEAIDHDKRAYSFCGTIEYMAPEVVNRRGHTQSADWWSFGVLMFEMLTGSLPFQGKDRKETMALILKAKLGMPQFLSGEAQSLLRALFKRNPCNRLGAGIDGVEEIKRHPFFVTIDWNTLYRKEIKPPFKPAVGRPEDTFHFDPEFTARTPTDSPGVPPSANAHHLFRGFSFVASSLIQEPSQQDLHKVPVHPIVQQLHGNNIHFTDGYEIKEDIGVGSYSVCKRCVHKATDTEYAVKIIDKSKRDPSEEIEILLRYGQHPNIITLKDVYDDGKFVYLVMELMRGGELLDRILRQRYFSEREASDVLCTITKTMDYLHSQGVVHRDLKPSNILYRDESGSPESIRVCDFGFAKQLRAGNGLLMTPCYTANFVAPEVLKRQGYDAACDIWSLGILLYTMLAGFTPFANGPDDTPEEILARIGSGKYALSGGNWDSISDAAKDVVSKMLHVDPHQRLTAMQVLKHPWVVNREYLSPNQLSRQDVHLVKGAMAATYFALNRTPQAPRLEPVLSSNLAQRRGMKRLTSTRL

[9] = target: Ribosomal protein S6 kinase alpha-1 (Homo sapiens) (UniProt Q15418); test: Inhibition of human full length RSK1 expressed in baculovirus assessed as substrate phosphorylation using fluorescence-labelled peptides as substrate at 420 uM after 90 mins by microfluidic peptide phosphorylation assay
[10] = target: MAP/microtubule affinity-regulating kinase 3 (Homo sapiens) (UniProt P27448); test: Inhibition of human full length c-TAK1 expressed in Escherichia coli cell assessed as substrate phosphorylation using fluorescence-labelled peptides as substrate at 420 uM after 90 mins by microfluidic peptide phosphorylation assay
Sequence of MAP/microtubule affinity-regulating kinase 3 (Homo sapiens) (P27448 whole entry, looked up, the tested form may be a part): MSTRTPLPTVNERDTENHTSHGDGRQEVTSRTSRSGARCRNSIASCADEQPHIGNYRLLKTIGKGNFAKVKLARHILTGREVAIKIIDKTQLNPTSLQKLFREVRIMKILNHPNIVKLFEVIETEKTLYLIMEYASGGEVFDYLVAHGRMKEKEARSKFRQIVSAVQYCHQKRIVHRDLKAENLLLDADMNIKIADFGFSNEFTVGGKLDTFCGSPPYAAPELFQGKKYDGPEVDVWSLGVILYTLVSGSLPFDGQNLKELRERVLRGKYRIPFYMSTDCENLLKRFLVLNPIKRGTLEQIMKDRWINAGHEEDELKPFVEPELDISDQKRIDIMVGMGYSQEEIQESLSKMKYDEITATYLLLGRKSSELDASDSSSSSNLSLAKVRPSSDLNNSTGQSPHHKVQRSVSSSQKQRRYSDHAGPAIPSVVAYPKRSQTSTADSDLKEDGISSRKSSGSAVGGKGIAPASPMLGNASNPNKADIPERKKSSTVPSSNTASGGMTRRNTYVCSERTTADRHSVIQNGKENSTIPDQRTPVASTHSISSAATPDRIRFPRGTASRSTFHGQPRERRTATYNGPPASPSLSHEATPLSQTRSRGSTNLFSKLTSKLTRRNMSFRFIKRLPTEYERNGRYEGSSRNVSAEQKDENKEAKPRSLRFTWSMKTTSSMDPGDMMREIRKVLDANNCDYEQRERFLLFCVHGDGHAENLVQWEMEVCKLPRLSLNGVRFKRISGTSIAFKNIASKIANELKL

[11] = test system: Tyrosine-protein kinase ABL1 (Homo sapiens), P00519 [T315I]; test: Inhibition of human truncated ABL T315I mutant expressed in baculovirus assessed as substrate phosphorylation using fluorescence-labelled peptides as substrate at 420 uM after 90 mins by microfluidic peptide phosphorylation assay
[12] = target: Dual specificity tyrosine-phosphorylation-regulated kinase 1A (Rattus norvegicus) (UniProt Q63470); test: Inhibition of rat full length DYRK1a expressed in Escherichia coli cell assessed as substrate phosphorylation using fluorescence-labelled peptides as substrate at 70 uM after 90 mins by microfluidic peptide phosphorylation assay
[13] = target: Tyrosine-protein kinase Lyn (Homo sapiens) (UniProt P07948); test: Inhibition of human full length LYN expressed in baculovirus assessed as substrate phosphorylation using fluorescence-labelled peptides as substrate at 2 uM after 90 mins by microfluidic peptide phosphorylation assay
Homo sapiens = species: Homo sapiens; test: Inhibition of human full length PKA expressed in baculovirus assessed as substrate phosphorylation using fluorescence-labelled peptides as substrate at 8 uM after 90 mins by microfluidic peptide phosphorylation assay
[14] = target: Protein kinase C delta type (Homo sapiens) (UniProt Q05655); test: Inhibition of human truncated PKC delta expressed in baculovirus assessed as substrate phosphorylation using fluorescence-labelled peptides as substrate at 8 uM after 90 mins by microfluidic peptide phosphorylation assay
Sequence of Protein kinase C delta type (Homo sapiens) (Q05655 whole entry, looked up, the tested form may be a part): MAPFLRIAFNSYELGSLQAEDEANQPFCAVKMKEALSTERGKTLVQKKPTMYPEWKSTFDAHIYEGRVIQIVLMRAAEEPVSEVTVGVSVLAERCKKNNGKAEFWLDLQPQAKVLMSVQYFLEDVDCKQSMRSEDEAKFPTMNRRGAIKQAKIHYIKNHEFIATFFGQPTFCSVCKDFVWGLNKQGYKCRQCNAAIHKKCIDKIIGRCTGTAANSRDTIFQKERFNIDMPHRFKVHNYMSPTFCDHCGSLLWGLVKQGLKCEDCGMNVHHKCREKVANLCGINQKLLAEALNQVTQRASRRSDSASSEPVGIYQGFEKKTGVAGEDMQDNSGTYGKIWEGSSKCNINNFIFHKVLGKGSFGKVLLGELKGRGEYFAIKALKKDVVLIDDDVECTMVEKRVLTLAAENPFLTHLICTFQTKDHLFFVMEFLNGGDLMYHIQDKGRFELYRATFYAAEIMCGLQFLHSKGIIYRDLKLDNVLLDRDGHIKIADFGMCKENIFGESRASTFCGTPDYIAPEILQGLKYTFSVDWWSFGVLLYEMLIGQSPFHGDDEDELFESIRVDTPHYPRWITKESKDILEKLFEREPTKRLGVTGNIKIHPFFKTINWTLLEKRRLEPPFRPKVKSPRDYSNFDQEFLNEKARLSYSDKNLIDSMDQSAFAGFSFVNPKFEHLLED

[15] = target: Tyrosine-protein kinase ABL2 (Homo sapiens) (UniProt P42684); test: Inhibition of human truncated Arg expressed in baculovirus assessed as substrate phosphorylation using fluorescence-labelled peptides as substrate at 1000 uM after 90 mins by microfluidic peptide phosphorylation assay
[16] = target: T2, Serine/threonine-protein kinase 3 (Homo sapiens) (UniProt Q13188); test: Inhibition of human full length MST2 expressed in baculovirus assessed as substrate phosphorylation using fluorescence-labelled peptides as substrate at 1000 uM after 90 mins by microfluidic peptide phosphorylation assay
T2 sequence (whole entry): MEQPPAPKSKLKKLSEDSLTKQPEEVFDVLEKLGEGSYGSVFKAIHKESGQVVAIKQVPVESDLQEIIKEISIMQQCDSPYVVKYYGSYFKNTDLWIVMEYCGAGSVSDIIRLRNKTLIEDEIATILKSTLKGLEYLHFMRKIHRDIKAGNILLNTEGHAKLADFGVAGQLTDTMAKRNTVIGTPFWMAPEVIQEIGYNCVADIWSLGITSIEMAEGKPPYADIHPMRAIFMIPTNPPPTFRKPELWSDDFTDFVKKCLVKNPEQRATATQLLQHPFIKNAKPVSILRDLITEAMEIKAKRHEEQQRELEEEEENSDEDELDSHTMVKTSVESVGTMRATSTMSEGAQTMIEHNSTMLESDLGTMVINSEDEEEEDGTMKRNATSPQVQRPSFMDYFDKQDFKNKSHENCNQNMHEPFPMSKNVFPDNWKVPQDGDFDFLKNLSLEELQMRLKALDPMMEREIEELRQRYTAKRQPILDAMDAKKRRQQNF

Sequence of Tyrosine-protein kinase HCK (Homo sapiens) (P08631 2-526 limits assumed): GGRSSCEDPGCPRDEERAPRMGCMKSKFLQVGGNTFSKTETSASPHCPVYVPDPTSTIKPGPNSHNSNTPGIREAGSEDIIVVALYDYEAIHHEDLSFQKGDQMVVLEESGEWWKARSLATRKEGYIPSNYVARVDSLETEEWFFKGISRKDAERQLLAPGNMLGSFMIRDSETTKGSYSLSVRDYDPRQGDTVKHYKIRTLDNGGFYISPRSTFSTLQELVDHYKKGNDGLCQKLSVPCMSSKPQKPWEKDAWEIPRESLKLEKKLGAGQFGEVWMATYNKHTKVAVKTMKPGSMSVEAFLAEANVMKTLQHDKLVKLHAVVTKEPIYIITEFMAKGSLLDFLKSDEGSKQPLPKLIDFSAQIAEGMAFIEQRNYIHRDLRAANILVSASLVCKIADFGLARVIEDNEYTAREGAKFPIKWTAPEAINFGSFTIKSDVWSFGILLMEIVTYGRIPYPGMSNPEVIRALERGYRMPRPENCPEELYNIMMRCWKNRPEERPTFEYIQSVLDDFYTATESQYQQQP

For `NCCc1ccc(-c2ncnc3[nH]cnc23)cc1`, the inhibition [1] was 48.5%, the inhibition [2] was 10% and the inhibition [3] was 77%.
`NC1(Cc2ccc(Cl)cc2)CCN(c2ncnc3[nH]ccc23)CC1` gave an inhibition [4] of 1%.
Work on `C[C@H](CN(C)C)Oc1nc(Nc2cc3cccc(Cl)c3cn2)cnc1C#N` yielded an inhibition [5] of 5.5%, an inhibition [6] of 0% and an inhibition [7] of 0%.
Compound `COC(=O)c1cnc(Nc2cnc(C#N)cn2)cc1NCC1CCNCC1` has an inhibition [8] of 44%.
Work on `c1nc(N2CCOCC2)c2nc[nH]c2n1` yielded an inhibition [9] of 87%, an inhibition [10] of 86.5% and an inhibition [11] of 73%.
Work on `CNCc1ccc(-c2ncnc3[nH]cnc23)cc1` yielded an inhibition [12] of 61%.
`NC1CCN(c2ncnc3[nH]ccc23)CC1` was tested, and the inhibition [13] was 0.5%.
Compound `NCC1CCN(c2ncnc3[nH]ccc23)CC1` has an inhibition (Homo sapiens) of 29.5% and an inhibition [14] of 67%.
Compound `c1cnc2[nH]ccc2c1` has an inhibition [15] of 40% and an inhibition [16] of 63%.
